Data from US20090048214A1, “Methods for Treating Renal Tumors Using 2, 4-Pyrimidinediamine Drug and Prodrug Compounds” (RIGEL PHARMACEUTICALS, INC, priority 2006, published 2009).

How the values were obtained:
K-562 = conditions: K-562, Leukemia; besylate salt
RPM1-8226 = conditions: RPM1-8226, Leukemia; besylate salt
NCI-H23 [1] = conditions: NCI-H23, Non-Small Cell Lung Cancer; besylate salt
NCI-H322M [2] = conditions: Non-Small Cell Lung Cancer, besylate salt
NCI-H460 [3] = conditions: NCI-H460, Non-Small Cell Lung Cancer; besylate salt
NCI-H522 = conditions: NCI-H522, Non-Small Cell Lung Cancer; besylate salt
COLO 205 = conditions: COLO 205, Colon Cancer; besylate salt
HCT-116 = conditions: HCT-116, Colon Cancer; besylate salt
SF-268 [4] = conditions: SF-268, CNS Cancer; besylate salt
SF-295 = conditions: SF-295, CNS Cancer; besylate salt
U251 [5] = conditions: U251, CNS Cancer; besylate salt
LOX I MVI [6] = conditions: Melanoma, besylate salt
OVCAR-3 = conditions: OVCAR-3, Ovarian Cancer; besylate salt
OVCAR-4 = conditions: OVCAR-4, Ovarian Cancer; besylate salt
RXF 393 = conditions: RXF 393, Renal Cancer; besylate salt
SN12C = conditions: Renal Cancer, besylate salt
TK-10 = conditions: TK-10, Renal Cancer; besylate salt
PC-3 [7] = conditions: PC-3, Prostate Cancer; besylate salt
NCI/ADR-RES = conditions: Breast Cancer, besylate salt
MDA-MB-231/ATCC = conditions: Breast Cancer, besylate salt
MDA-MB-435 = conditions: MDA-MB-435, Breast Cancer; besylate salt
A549/ATCC = assay: cells; conditions: Homo sapiens, A549, read-out: LC50
EKVX = assay: cells; conditions: Homo sapiens
NCI-H23 [8] = assay: cells; conditions: Homo sapiens, NCI-H23, read-out: LC50
NCI-H322M [9] = assay: cells; conditions: Homo sapiens
NCI-H460 [10] = assay: cells; conditions: Homo sapiens, NCI-H460, read-out: LC50
HCC-2998 = assay: cells; conditions: Homo sapiens
SF-268 [11] = assay: cells; conditions: Homo sapiens
SF-539 = assay: cells; conditions: Homo sapiens
SNB-19 = assay: cells; conditions: Homo sapiens
U251 [12] = assay: cells; conditions: Homo sapiens, U-251, read-out: LC50
LOX I MVI [13] = assay: cells; conditions: Homo sapiens, LOX IMVI
MALME-3M = assay: cells; conditions: Homo sapiens
OVCAR-5 = assay: cells; conditions: Homo sapiens
OVCAR-8 = assay: cells; conditions: Homo sapiens
UO-31 = assay: cells; conditions: Homo sapiens
PC-3 [14] = assay: cells; conditions: Homo sapiens
DU-145 = assay: cells; conditions: Homo sapiens, DU-145, read-out: LC50
HS 578T = assay: cells; conditions: Homo sapiens

COc1cc(Nc2ncc(F)c(Nc3ccc4c(n3)NC(=O)C(C)(C)O4)n2)cc(OC)c1OC [Compound 1]
1.13 µM: IC50 (LOX I MVI [13]; read-out: G150)
7.74E−7: TGI (RXF 393)
1.7 µM: IC50 (SF-268 [11]; SF-268, read-out: G150)
> 100 µM: CC50 (A549/ATCC) | CC50 (EKVX; read-out: LC50) | CC50 (NCI-H23 [8]) | IC50 (NCI-H322M [9]; read-out: G150) | CC50 (NCI-H322M [9]; read-out: LC50) | CC50 (NCI-H460 [10]) | IC50 (HCC-2998; HCC 2998, read-out: G150) | CC50 (HCC-2998; HCC 2998, read-out: LC50) | CC50 (SF-268 [11]; SF-268, read-out: LC50) | CC50 (SF-539; SF-539, read-out: LC50) | IC50 (SNB-19; SNB-19, read-out: G150) | CC50 (SNB-19; SNB-19, read-out: LC50) | CC50 (U251 [12]) | CC50 (LOX I MVI [13]; read-out: LC50) | IC50 (MALME-3M; read-out: G150) | CC50 (MALME-3M; read-out: LC50) | IC50 (OVCAR-5; OVCAR-5, read-out: G150) | CC50 (OVCAR-5; OVCAR-5, read-out: LC50) | IC50 (OVCAR-8; OVCAR-8, read-out: G150) | CC50 (OVCAR-8; OVCAR-8, read-out: LC50) | CC50 (UO-31; UO-31, read-out: LC50) | CC50 (PC-3 [14]; PC-3, read-out: LC50) | CC50 (DU-145) | CC50 (HS 578T; read-out: LC50)
1.19 µM: IC50 (HS 578T; read-out: G150)
1.13E−6: TGI (LOX I MVI [6])
>1.00E−4: TGI (K-562) | TGI (RPM1-8226) | TGI (NCI-H23 [1]) | TGI (NCI-H322M [2]) | TGI (NCI-H460 [3]) | TGI (NCI-H522) | TGI (COLO 205) | TGI (HCT-116) | TGI (SF-268 [4]) | TGI (SF-295) | TGI (U251 [5]) | TGI (OVCAR-3) | TGI (OVCAR-4) | TGI (SN12C) | TGI (TK-10) | TGI (PC-3 [7]) | TGI (NCI/ADR-RES) | TGI (MDA-MB-231/ATCC) | TGI (MDA-MB-435)
0.605 µM: IC50 (SF-539; SF-539, read-out: G150)
3.07 µM: IC50 (PC-3 [14]; PC-3, read-out: G150)
1.66 µM: IC50 (EKVX; read-out: G150)
0.596 µM: IC50 (UO-31; UO-31, read-out: G150)
